According to US8039464B2, “Muscarinic antagonists with PARP and SIR modulating activity as agents for inflammatory diseases” (ProteoSys AG, priority 2004, dated 2011):
Values joined by “and” are separate entries in the source; they are usually repeats but may differ in a detail not shown here. Identical values can stand only once. “Also recorded” adds a separate entry of the source. Like-named read-outs stand apart in the source and are kept apart here.

What was measured:
[1] = tested on: iNOS and Cox-2; assay: Cox-2 and iNOS expression after LPS challenge (Western blot); assay type: cell-based; conditions: LPS 100 ng/ml for 60 min
Protocol: (§1) Cell pellets were further investigated by Western blot staining with anti Cox-2 and anti iNOS antibodies of 1D polyacrylamide gels.
(§2) Cell survival was assessed by Trypan Blue staining.

[2] = tested on: D3 embryonic stem (ES) cells, neurons; assay: Cell culture model for chemical ischemia and neuroprotection (calcium imaging); assay type: cell-based, mice; conditions: β-methyl-cyclodextrin or filipin
Protocol: For all experiments, D3 embryonic stem (ES) cells derived from 129/sv mice [Okabe et al., 1996] were cultivated for 12 days, with passages on days 2, 4, 7 and 9 as described previously [Sommer et al., 2004]. Insult conditions: Cells (24-well plates) were pre-incubated with or without 20 nM EPO in fresh medium for 24 hours at 37° C. Cells were rinsed once with low K^+ solution (140 mM NaCl, 4.7 mM KCl, 1.2 mM KH2PO4, 2.5 mM CaCl2, 1.2 mM MgSO4, 11 mM glucose, 15 mM Hepes-NaOH, pH 7.35). Cells (either with or without EPO pre-incubation) were incubated for up to 45 min (37° C.) with either low K^+ solution or with glucose-free low K^+ solution supplemented with 1 mM KCN (chemical ischemia solution [Kume et al., 2002]). Vitality control to asses numbers of surviving neurons was performed by a brief stimulation with a low dose of glutamate (10 μM). Afterwards, cells were washed three times with ice cold phosphate buffered saline (PBS), and then proteins were harvested. Suspended cells were pelleted at 500×G, and lysed into 9M urea 4% CHAPS. The cell lysate was desalted with a NAP-10 column (Amersham Biosciences), preequilibrated with the same buffer, and protein content was determined.
Functional tests by calcium imaging were performed essentially as described [Sommer et al., 2004]. Briefly, cells were loaded with 2 μM of […] in DMEM for 45 min at 37° C. in the dark. Measurements of relative changes in [Ca^2+] were made on an inverted epifluorescence microscope (Olympus IX70 S1F2) with a Polychrom IV Monochromator (Xe-lamp, USHIO). Excitation wavelengths (λ1, λ2) and the emission wavelength were 340, 380 and 510 nm, respectively. Acquisition and analysis of data after appropriate stimulation were performed by using MetaFluor software (Universal Imaging Corporation). Image resolution was 168×129 pixels (binning 8×8, pixel size 6.8×6.8 μm). Only cells identified as neurons by morphological criteria and occasional immunostaining (not shown) and those whose calcium levels returned to the resting state after the first stimulation were taken into account. Controls included nominal zero calcium (negative) and 5 μM ionomycin (positive), 10 μM glutamate (positive) and depolarisation (55 mM K+) (positive). Pharmacological agents were applied by a multi-valve, single-output focal drug application device (ALA Scientific) with the perfusion system DAD-12. […] During each stimulation event 20 image pairs were acquired.

[3] = molecular target: T1, SIR-2 (Mus musculus, UniProt Q923E4); assay: SIR2 activity assay (CycLex SIR2 Assay kit); assay type: biochemical, murine
T1 construct: Using a raw extract from murine embryonic stem cells; host or cells: murine embryonic stem cells (raw extract)
T1 sequence (Q923E4 2-737 limits assumed): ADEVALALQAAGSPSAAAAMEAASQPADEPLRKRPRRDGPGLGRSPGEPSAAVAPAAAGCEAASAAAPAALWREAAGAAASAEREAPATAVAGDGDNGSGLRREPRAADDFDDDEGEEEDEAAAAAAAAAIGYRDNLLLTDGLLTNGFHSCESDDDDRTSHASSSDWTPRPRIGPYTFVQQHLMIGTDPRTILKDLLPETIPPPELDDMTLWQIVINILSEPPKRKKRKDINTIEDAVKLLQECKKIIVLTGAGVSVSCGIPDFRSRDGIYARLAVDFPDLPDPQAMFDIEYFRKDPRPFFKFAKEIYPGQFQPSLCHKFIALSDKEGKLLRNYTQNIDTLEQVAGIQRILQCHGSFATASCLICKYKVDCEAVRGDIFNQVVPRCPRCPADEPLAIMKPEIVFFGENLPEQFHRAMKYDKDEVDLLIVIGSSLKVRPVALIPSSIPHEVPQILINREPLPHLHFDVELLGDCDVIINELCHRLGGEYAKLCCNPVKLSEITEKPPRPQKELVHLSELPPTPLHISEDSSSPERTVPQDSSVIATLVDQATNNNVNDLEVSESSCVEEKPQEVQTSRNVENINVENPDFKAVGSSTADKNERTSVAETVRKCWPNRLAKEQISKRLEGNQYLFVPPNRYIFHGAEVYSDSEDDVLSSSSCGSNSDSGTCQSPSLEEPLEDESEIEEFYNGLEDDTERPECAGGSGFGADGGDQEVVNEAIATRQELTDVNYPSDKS
Source text: For measurements of SIR2 activities, the quantitative test kit for NAD-dependent histone deacetylase activity CycLex® SIR2 Assay kit (Cat# CY-1151) was used according to instructions of manufacturer (CycLex Co., Ltd. 1063-103 Ohara, Tera-Sawaoka Ina, Nagano 396-0002 Japan). All substances tested in the SIR assay were cross-checked for their influence on the lysyl-endopeptidase. For this control an already deacetylated substrate peptide was used in order to measure directly lysyl-endopeptidase activity.
For measurements of SIR2 activities, the quantitative test kit for NAD-dependent histone deacetylase activity CycLex® SIR2 Assay kit (Cat# CY-1151) was used according to instructions of manufacturer (CycLex Co., Ltd. 1063-103 Ohara, Tera-Sawaoka Ina, Nagano 396-0002 Japan).

[4] = molecular target: T2, PARP-1 (Homo sapiens, UniProt P09874); assay: PARP inhibition assay (R&D Systems, Cat. No. TA4669); assay type: biochemical
T2 construct: purchased R&D Systems TA4669
T2 sequence (P09874 whole entry): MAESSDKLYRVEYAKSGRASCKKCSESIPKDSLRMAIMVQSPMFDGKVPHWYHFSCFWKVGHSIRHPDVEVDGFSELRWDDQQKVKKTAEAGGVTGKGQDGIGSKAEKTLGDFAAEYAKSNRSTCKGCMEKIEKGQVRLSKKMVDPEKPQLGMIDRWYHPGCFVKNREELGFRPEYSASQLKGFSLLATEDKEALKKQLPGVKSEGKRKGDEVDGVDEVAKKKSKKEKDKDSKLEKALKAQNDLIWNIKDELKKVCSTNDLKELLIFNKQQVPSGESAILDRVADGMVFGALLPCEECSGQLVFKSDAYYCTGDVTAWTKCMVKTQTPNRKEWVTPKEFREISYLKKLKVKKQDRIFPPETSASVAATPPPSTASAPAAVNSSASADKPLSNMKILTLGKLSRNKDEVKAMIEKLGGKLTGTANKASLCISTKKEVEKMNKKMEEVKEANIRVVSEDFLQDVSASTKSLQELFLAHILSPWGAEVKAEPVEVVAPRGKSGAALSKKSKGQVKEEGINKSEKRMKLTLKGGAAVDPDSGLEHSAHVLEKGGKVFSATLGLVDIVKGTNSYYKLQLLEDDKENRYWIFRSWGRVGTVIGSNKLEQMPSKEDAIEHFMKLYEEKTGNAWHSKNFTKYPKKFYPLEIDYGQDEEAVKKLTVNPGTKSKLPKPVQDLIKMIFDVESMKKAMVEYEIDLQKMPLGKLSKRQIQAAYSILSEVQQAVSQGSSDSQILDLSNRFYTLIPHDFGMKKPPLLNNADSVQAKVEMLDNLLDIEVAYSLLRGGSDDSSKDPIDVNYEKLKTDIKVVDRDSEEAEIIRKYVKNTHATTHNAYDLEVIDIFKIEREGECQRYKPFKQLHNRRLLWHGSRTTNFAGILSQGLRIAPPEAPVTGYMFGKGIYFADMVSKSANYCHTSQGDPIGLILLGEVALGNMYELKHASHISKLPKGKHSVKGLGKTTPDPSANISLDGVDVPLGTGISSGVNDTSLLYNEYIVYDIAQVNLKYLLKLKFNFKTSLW
Source text: A PARP inhibition assay from R&D Systems was used (Cat. No. TA4669) according to instructions of the supplier.
Under cellular conditions PARP-1 poly-ADP-ribosylates a host of nuclear proteins, including topoisomerase 1, 14-3-3 g and PARP-1 itself. Thus under cellular conditions, the self-modification of PARP-1 and dimerization are regulating its activity, moreover there is a tight interplay with PARG (poly-ADP-ribosyl-glycohydroxylase).

[5] = Blood-brain-barrier passage: HPLC of plasma and CSF
Source text: J. Gastroenterol. 66, 35ff.; Homon et al., 1987, Therapeutic Drug Monitoring 9, 236ff.).

[6] = tested on: neurally differentiated V56 embryonic stem cells; assay: LPS challenge, cell survival by Trypan Blue; assay type: cell-based; conditions: LPS 100 ng/ml for 60 min
Protocol: as §1, §2

[7] = tested on: undifferentiated V56 embryonic stem cells; assay: LPS challenge, cell survival by Trypan Blue; assay type: cell-based; conditions: LPS 100 ng/ml for 60 min
Protocol: as §1, §2

[8] = tested on: 3T3 fibroblasts; assay: LPS challenge, cell survival by Trypan Blue; assay type: cell-based; conditions: LPS 100 ng/ml for 60 min
Protocol: as §1, §2

[9] = tested on: A 549 cells; assay: LPS challenge, cell survival by Trypan Blue; assay type: cell-based; conditions: LPS 100 ng/ml for 60 min
Protocol: as §1, §2

[10] = tested on: poly-ADP-ribosylated proteins; assay: PARP inhibition under cellular conditions (Western blot of poly-ADP-ribosylated proteins); assay type: cell-based; conditions: ischemic insult of neural cells by KCN/glucose deprivation; read-out: IC 50 of decrease of poly-ADP-ribosylated proteins
[11] = tested on: traumatic brain injury (TBI); assay: Controlled Cortical Impact Injury (traumatic brain injury model); assay type: in vivo
Protocol: The model employed a direct shock to the dura via a burrhole, animals were treated according to the following schemes: Vehicle, LS-75, 8 animals per group starting the study, 2 spare animals; animals were sacrificed 44 h after injury, the endpoints were survival, post injury signs, lesion size by FLB (Fast Luxol Blue) and EMAP (Endothelial, Monocyte, Activating Peptide) staining. The dosing i.p. 100 mg/kg 2 h prior to injury; 40 mg/kg i.p. 2 h after injury; 40 mg/kg i.p. 8 h after injury; 40 mg/kg i.p. 17 h after injury; 40 mg/kg i.p. 25 h after injury; 70 mg/kg i.p. 34 h after injury; Formulation: LS-75 was prepared as a DMSO slurry (not solution) in a mortar and pestle and saline will be added slowly with grinding to reach 4% DMSO final concentration. The suspension is maintained at room temperature and the preparation used for the duration of the study. To vary dose, the volume injected may change. Volume for 100 mg/kg was be 4 mL/kg.

## O=C1Nc2cccnc2Nc2ccccc21 [LS-75, 6H-pyrido[2,3-b][1,4]benzodiazepin-6-one]
[1]
  expression of inducible inflammatory markers iNOS and Cox-2: decreased expression
[2]
  neuroprotective effect under raft-disrupting conditions: does not occur
[3]
  IC50: 1000 to 5000 µM
  SIR-2 inhibition (in words): weak SIR 2 inhibitor; also recorded: weak SIR-2 inhibitors
[3]; listed as PBD/LS-75
  SIR-2 inhibition (in words): weak inhibitory effect
[4]
  PARP-1 inhibition (in words): moderately strong PARP-1 inhibitor
[4]; IC50 PARP-1 inhibition, R&D assay, recombinant monomeric PARP-1
  IC50: 18 µM and ~20 µM
[5]; LS-75 applied directly
  passage through the BBB: substantial passage
[5]; after Pirenzepine application, after 6 h
  LS-75 levels in CSF: substantial increase
[5]; rat, in vivo, 50 mg/kg
  Kp: 0.25 to 0.3
[5]; rats, Mevastatin 0.15 mg/day for 14 days before oral gavage
  LS-75 in CSF after Mevastatin pretreatment: far less
[5]; rats, Mevastatin 0.15 mg/day for 14 days before oral gavage of 50 mg Pirenzepine and LS-75
  higher concentrations in plasma after Mevastatin pretreatment: about 50%
[6]
  protection from LPS challenge: protect
[7]
  protection from LPS challenge: protect
[8]
  protection from LPS challenge: protect
[9]
  protection from LPS challenge: protect
[10]
  IC50: ~0.3 µM
[11]; 44 h after induction of TBI, i.p. dosing, compared to vehicle controls
  reduction of secondary lesions: approx. 50%
[11]; contralateral hippocampus, compared to controls
  reduction of markers for cell damage (fast luxol blue and EMAP): 40-60%
